Measurements reported in patent US20090105245A1, “METHODS FOR TREATING MACULAR EDEMA AND OCULAR ANGIOGENESIS USING AN ANTI-INFLAMMATORY AGENT AND A RECEPTOR TYROSINE KINASE INHIBITOR” (priority 2006, published 2009).

Columns and labels:
Assay type in all cases: in vivo
[1] = system: existing laser-induced choroidal neovascularization (CNV) in the mouse; assay: Mouse laser-induced CNV, regression paradigm, oral gavage from day 7; settings: 3 mg/kg/day, oral from day 7
[2] = system: VEGF-induced retinal vascular permeability; assay: VEGF-induced retinal vascular permeability in the rat (Evans blue), intravitreal injection; settings: 10 μl intravitreal
Experimental: METHODS: Adult Sprague-Dawley rats were anesthetized with intramuscular ketamine/xylazine and their pupils dilated with topical cycloplegics. Rats were randomly assigned to intravitreal injection groups of 0% 0.3%, 1.0%, and 3.0% RTKI and a positive control. Ten μl of each compound was intravitreally injected in each treatment eye (n=6 eyes per group). Three days following first intravitreal injection, all animals received an intravitreal injection of 10 μl 1400 ng hr VEGF in both eyes. Twenty-four hours post-injection of VEGF, intravenous infusion of 3% Evans blue dye was performed in all animals, where 50 mg/kg of Evans blue dye was injected via the lateral tail vein during general anesthesia. After the dye had circulated for 90 minutes, the rats were euthanized. The rats were then systemically perfused with balanced salt solution, and then both eyes of each rat were immediately enucleated and the retinas harvested using a surgical microscope. After measurement of the retinal wet weight, the Evans blue dye was extracted by placing the retina in a 0.2 ml formamide (Sigma) and then the homogenized and ultracentrifuged. Blood samples were centrifuged and the plasma diluted 100 fold in formamide. For both retina and plasma samples, 60 μl of supernatant was used to measure the Evans blue dye absorbance (ABS) with at 620/740 nm. The blood-retinal barrier breakdown and subsequent retinal vascular permeability as measured by dye absorbance were calculated as means ±s.e.m. of net ABS/wet weight/plasma ABS. A two-tailed Student's t-test were used for pair wise comparisons between OS and OD eyes in each group. One way ANOVA was used to determine an overall difference between treatment means, where P≦0.05 was considered significant.

[3] = system: preretinal neovascularization (NV) in the rat OIR model; assay: Rat OIR model, oral gavage
Experimental: Immediately following euthanasia, retinas from all rat pups were harvested, fixed in 10% neutral buffered formalin for 24 hours, subjected to ADPase staining, and fixed onto slides as whole mounts. Digital images were acquired from each retinal flat mount that was adequately prepared. Computerized image analysis was used to obtain a NV clockhour score from each readable sample. Each clockhour out of 12 total per retina was assessed for the presence or absence of preretinal NV. Statistical comparisons using median scores for NV clockhours from each treatment group were utilized in nonparametric analyses. Each noninjected pup represented one NV score by taking the average value of both eyes and was used in comparisons against each dosage group. Because the pups were randomly assigned and no difference was observed between oxygen-exposed control pups from all litters, the NV scores were combined for all treatment groups. P≦0.05 was considered statistically significant.
METHODS: Pregnant Sprague-Dawley rats were received at 14 days gestation and subsequently gave birth on Day 22±1 of gestation. Immediately following parturition, pups were pooled and randomized into separate litters (n=17 pups/litter), placed into separate shoebox cages inside oxygen delivery chamber, and subjected to an oxygen-exposure profile from Day 0 to Day 14 postpartum. Litters were then placed into room air from Day 14/0 through Day 14/6 (days 14-20 postpartum). Additionally on Day 14/0, each pup was randomly assigned as oxygen-exposed controls, vehicle treated, or drug-treated at 1.5, 5, 10 mg/kg, p.o., BID. At Day 14/6 (20 days postpartum), all animals in both studies were euthanized and retina whole mounts were prepared as described in Example 1 above.

[4] = system: diabetes-induced retinal vascular permeability; assay: STZ diabetic rat retinal vascular permeability (Evan's blue albumin permeation), oral gavage
Experimental: METHODS: Diabetes was induced in male Long-Evans rats with 65 mg/kg streptozotocin (STZ) after an overnight fast. Upon confirmation of diabetes (blood glucose >250 mg/dl), treatment was initiated by oral gavage. Non-diabetic (NDM) and diabetic (DM) rats received oral gavage of either vehicle or RTK inhibitor at 1.5 or 5 mg/kg/d BID. After 2 weeks, jugular vein catheters were implanted 1 day prior to experimentation for the infusion of indicator dye. Retinal vascular permeability, RVP, was measured using Evan's blue albumin permeation (45 mg/kg) after a 2 hour circulation period.

## Cc1ccc(F)c(NC(=O)Nc2ccc(-c3cccc4[nH]nc(N)c34)cc2)c1 [Compound 86, N-[4-[3-amino-1H-indazol-4-yl]phenyl]-N′-(2-fluoro-5-methylphenyl)urea]
[1]
  regression of existing CNV: did not show a significant regression of existing CNV
[2]; 0.3% RTKi
  decrease of retinal vascular permeability vs vehicle-injected eyes: 50%
[2]; 1.0% RTKi
  decrease of retinal vascular permeability vs vehicle-injected eyes: 61%
[2]; 3% RTKi
  decrease of retinal vascular permeability vs vehicle-injected eyes: 53%
[3]; 3 mg/kg/day p.o.
  decrease in NV: did not have a significant decrease in NV
[3]; 10 mg/kg/day p.o.
  inhibition of preretinal NV vs vehicle-treated pups: significant inhibition of preretinal NV
[3]; 20 mg/kg/day p.o.
  inhibition of preretinal NV: complete inhibition of preretinal NV
[3]; oral gavage, rat OIR (FIG. 2)
  prevention of preretinal neovascularization (NV): prevents preretinal neoavascularization (NV)
[4]; DM control vs DM treatment groups
  blood glucose levels and body weights: not different between DM control and DM treatment groups
[4]; oral RTKi, NDM and DM groups
  tolerability, systemic or ERG side effects: well tolerated by both NDM and DM groups with no observed systemic or ERG side effects
